Entries after “also recorded” stand apart in the source; their conditions may differ.
Legend:
[1] = test system: IL1β and IL6; test: Collagen-induced arthritis model (collagen emulsion in CFA), pro-inflammatory cytokines; assay type: in vivo, mice
Method: FIG. 8. Collagen-induced arthritis model. Animals were injected with a collagen emulsion in Complete Freunds Adjuvant (CFA) and treated with either CAP during early disease development or once arthritic disease was established.
Central to the overarching hypothesis, is the anti-inflammatory effects of CAP.
Rheumatoid arthritis (RA), an autoimmune condition caused by the immune system attacking healthy body tissue by directing antibodies to the lining of the joints, where they attack the tissue surrounding the joint. In an established mouse model of RA, induced by injection of collagen and Complete Freunds Adjuvant (CFA), there is an increase in the pro-inflammatory cytokines, IL1B and IL6 (FIG. 17). […] Therefore, different doses of CAP appear to be effective in the developing versus the established stages of the disease. These changes were accompanied by a reduction in peripheral B cells. These findings are important because IL6 and IL1B are differentially elevated depending on the severity of various infections, such as SARS-CoV-2. Thus, testing different doses of CAP at different stages of infection will be helpful to optimizing translational therapy.

[2] = test system: IL17a; test: Preeclampsia model in pregnant mice (TLR agonists), IL17; assay type: in vivo; settings: PolyI:C or R837 induced; CAP i.p. (2 mg/kg, gestational day 13 elsewhere in the source)
Method: FIG. 9. CAP reduces IL-17 production in a model of preeclampsia. Pregnant mice were treated with the TLR3 or […] agonists to induce symptoms of preeclampsia, followed by CAP treatment.
(§1) In a separate study, preeclampsia was induced in pregnant mice by injection of either the toll-like receptor 3 (TLR3) agonist, PolyI:C, or with the toll-like receptor 8 ([…]) agonist R837. […] It is pertinent to note that this power issue has been corrected.
(§2) Preeclampsia, a disease suffered by pregnant woman that is characterized by high blood pressure and signs of damage to other organ systems, most often the liver and kidneys, is often accompanied by inflammation. […] Preeclampsia is also associated with an elevated TH17 response, including elevated IL17a, and elevated IL17a is associated with human and experimental hypertension and poor perinatal outcomes. […] Therefore, the anti-inflammatory effects of CAP were associated with improved outcomes in this model.

[3] = test system: peripheral pro-inflammatory cells; test: TBI (fluid percussion injury), peripheral pro-inflammatory cells; assay type: in vivo; settings: TBI / FPI
Excerpt: FIG. 17. CAP reduces peripheral pro-inflammatory cells. TBI is traumatic brain injury. FPI is fluid percussion injury.

[4] = test system: CD8+ T cells; test: CAP-induced expansion of CD8+ T cells with or without α7nAChR antagonist; assay type: in vivo; settings: CAP treatment
[5] = test system: CLIP+ B cells; test: CFA-induced arthritis model, CAP depletion of B cells with or without α7nAChR antagonist; assay type: in vivo, mice
Method: FIGS. 11A-11B. […] In this study, CAP was administered at 3 days after CFA, then once daily every 3 days, until day 10 after CFA.
The next series of experiments are focused on the effects of CAP on splenic immune cells. […] As part of this experiment, the mice were co-treated with CAP and the alpha-7 nicotinic acetylcholine receptor (α7nAChR) antagonist, methyllycaconitine (MCA).

[6] = Preeclampsia model in pregnant mice (TLR agonists), blood pressure; assay type: in vivo; settings: TLR agonist induced, CAP i.p. 2 mg/kg
Method: FIG. 15. CAP reverses inflammatory characteristics in a preeclampsia model. Pregnant mice were treated with TLR agonists (R837, Clo97, and PIC) to induce symptoms of preeclampsia followed by CAP treatment (shown as TPP).
as §2

[7] = test system: IL1b, IL6 and IL17; test: TBI-induced changes in brain cytokines; assay type: in vivo, mice; settings: CAP i.p. 30 minutes after TBI, brains harvested 24 hours after TBI; not significant, under-powered
Method: FIG. 10. TBI-induced changes in brain cytokines. TBI induced increase in brain IL1b, IL6 and IL17 are reversed by CAP. Cap was administered i.p. 30 minutes after TBI and brains were harvested 24 hours after TBI.
as §1

[8] = test system: splenic B cells; test: CFA-sensitized mice treated with Peptide with or without MLA, FACS of splenic B cells; assay type: in vivo
Method: SUMMARY: A study was conducted to evaluate a potential alpha7 nAChR anti-inflammatory mechanism of the MKR-4 peptide, using the alpha7 nAChR antagonist methyllycaconitine (MLA). After enrollment, animals in Groups 2-4 were sensitized ID at the base of the tail with 0.1 mL FCA on Day 1. On Days 2, 3, 5 & 7 Groups were then dosed intraperitoneally (IP) with either: peptide and MLA in combination (2 mg/kg and 6 mg/kg, respectively); peptide (2 mg/kg) and MLA vehicle (saline) in combination; or peptide vehicle (saline) and MLA vehicle (saline). Animals were dosed once on Study Day 2 (MLA or MLA vehicle), and Days 3, 5 & 7 (Peptide or Peptide vehicle, MLA or MLA vehicle) as described in Table 2 below. Body weights were recorded on Study Days 0 & 8. Mice were euthanized for necropsy on Study Day 8, and serum and whole spleens were collected from all animals and sent to the sponsor for internal FACS analysis. Toxicity and Peptide mechanistic evaluation was based on absolute body weight change, spleen weights and sponsor FACS analysis (not included in report).
Antibodies and Flow Cytometry. Single cell suspensions were made of tissues or cells harvested from culture and stained with the following monoclonal antibodies: a monoclonal antibody directed against mouse alpha 7 nicotinic acetylcholine receptor (alpha 7 nAChR) (Santa Cruz Biotechnology); anti-mouse MHC Class II (M5114), and anti-mouse CLIP 15G4, Santa Cruz. Following staining, cells were analyzed comparing each level of staining to the appropriate isotype control on a Beckman Coulter Cytoflex benchtop flow cytometer. Data was analyzed using FlowJo software (Tree Star Inc.).
Experimental Design: On Study Day 0, mice were weighed and randomized by body weight into treatment groups. Following randomization, on Study Day 1, Groups 2-4 were sensitized ID at the base of the tail with 0.1 mL of FCA. When MLA and Peptide (FRIMAVLAS (SEQ ID NO: 389))—or their vehicles—were dosed on the same day, the MLA antagonist or vehicle was dosed 1 hour before the Peptide or its vehicle.
On Study Day 8, mice were anesthetized with Isoflurane (VetOne, Cat #502017) and bled to exsanguination followed by cervical dislocation for necropsy and tissue collection.

## FRIMAVLAS [CAP, α7nAChR agonist]
[1]; 0.2 mg/kg i.p., developing stage
  reducing IL1β and IL6: most efficacious
[1]; 20 mg/kg i.p., established stage
  reducing IL1β and IL6: most efficacious
[1]; RA model, CAP i.p.
  peripheral B cells: reduction
[1]; early or established disease, particularly in the established (late stage) model
  cytokines: dose dependent reduction
[1]; i.p. 2 mg/kg, developing stage
  reducing IL1B and IL6: most efficacious
[2]
  elevated IL17 (IL17a): significantly reduced
[3]
  peripheral pro-inflammatory cells: reduces
[4]
  expansion of CD8+ T cells: induce the expansion; also recorded: induces expansion
[5]; 3x CAP treatment
  CFA-induced B cell expansion: reversed
[5]; CAP from 3 days after CFA, once every 3 days until day 10
  number of CLIP+ B cells (pro-inflammatory B cell populations): significantly reduced; also recorded: selectively depletes
[6]
  elevated blood pressure: significantly reduced
[7]
  brain IL1b, IL6 and IL17: trend toward a reduction; also recorded: reversed
[8]; CFA treated and Peptide treated (2 mg/kg IP), vehicle 49.8%, CFA 50.1%
  percentage of splenic B cells: 34.4%
[8]; CFA treated mice, Peptide 2 mg/kg IP
  number of CLIP+ B cells: reduction

Source: patent US20230226135A9, “ACETYLCHOLINE MODULATION OF IMMUNE FUNCTION” (BCell Solutions, Inc., priority 2019, published 2023)
